Test results: ChEMBL document CHEMBL4251574, “Design, synthesis, and biological evaluation of new 1,2,3-triazolo-2'-deoxy-2'-fluoro- 4'-azido nucleoside derivatives as potent anti-HBV agents” (Eur J Med Chem, 2018)

Columns and labels:
Format in all cases: functional
Hepatitis B virus [1] = assay: Antiviral activity against Hepatitis B virus infected in human HepG2.2.15 cells assessed as inhibition of HBsAg secretion at 5 uM after 9 days by ELISA relative to control; conditions: HepG2.2.15, 216 h
Hepatitis B virus [2] = assay: Antiviral activity against Hepatitis B virus harboring rtV173L/L180M/M204V mutant infected in HepGRL1 cells assessed as inhibition of intracellular HBV DNA level at 0.2 uM measured on day 6 by FQ-PCR analysis relative to control; conditions: 144 h
Hepatitis B virus [3] = assay: Antiviral activity against Hepatitis B virus harboring rtV173L/L180M/M204V mutant infected in HepGRL1 cells assessed as inhibition of intracellular HBV DNA level at 1 uM measured on day 6 by FQ-PCR analysis relative to control; conditions: 144 h
Duck hepatitis B virus [4] = assay: Antiviral activity against DHBV infected in duck assessed as inhibition of viral DNA level in liver at 1 mg/kg, po administered once daily measured on day 10 by SYBR Green I dye-based FQ-PCR analysis relative to control; conditions: 240 h
Duck hepatitis B virus [5] = assay: Antiviral activity against DHBV infected in duck assessed as inhibition of viral DNA level in serum at 0.04 mg/kg, po administered once daily measured on day 10 by SYBR Green I dye-based FQ-PCR analysis relative to control; conditions: 240 h
Hepatitis B virus [6] = assay: Antiviral activity against Hepatitis B virus infected in human HepG2.2.15 cells assessed as inhibition of intracellular HBV DNA level at 5 uM measured on day 6 by FQ-PCR analysis; conditions: HepG2.2.15, 144 h
Duck hepatitis B virus [7] = assay: Antiviral activity against DHBV infected in duck assessed as inhibition of viral DNA level in liver at 0.04 mg/kg, po administered once daily measured on day 15 by SYBR Green I dye-based FQ-PCR analysis relative to control; conditions: 360 h
Duck hepatitis B virus [8] = assay: Antiviral activity against DHBV infected in duck assessed as inhibition of viral DNA level in serum at 0.2 mg/kg, po administered once daily measured on day 15 by SYBR Green I dye-based FQ-PCR analysis relative to control; conditions: 360 h
Hepatitis B virus [9] = assay: Antiviral activity against Hepatitis B virus harboring rtV173L/L180M/M204V mutant infected in HepGRL1 cells assessed as inhibition of intracellular HBV DNA level at 0.2 uM measured on day 9 by FQ-PCR analysis relative to control; conditions: 216 h
Duck hepatitis B virus [10] = assay: Antiviral activity against DHBV infected in duck assessed as inhibition of viral DNA level in serum at 1 mg/kg, po administered once daily measured on day 10 by SYBR Green I dye-based FQ-PCR analysis relative to control; conditions: 240 h
Hepatitis B virus [11] = assay: Antiviral activity against Hepatitis B virus infected in human HepG2.2.15 cells assessed as inhibition of intracellular HBV DNA level at 5 uM measured on day 9 by FQ-PCR analysis; conditions: HepG2.2.15, 216 h
Hepatitis B virus [12] = assay: Antiviral activity against Hepatitis B virus harboring rtV173L/L180M/M204V mutant infected in HepGRL1 cells assessed as inhibition of intracellular HBV DNA level at 5 uM measured on day 9 by FQ-PCR analysis relative to control; conditions: 216 h
Duck hepatitis B virus [13] = assay: Antiviral activity against DHBV infected in duck assessed as inhibition of viral DNA level in serum at 0.04 mg/kg, po administered once daily measured on day 15 by SYBR Green I dye-based FQ-PCR analysis relative to control; conditions: 360 h
Duck hepatitis B virus [14] = assay: Antiviral activity against DHBV infected in duck assessed as inhibition of viral DNA level in liver at 0.2 mg/kg, po administered once daily measured on day 10 by SYBR Green I dye-based FQ-PCR analysis relative to control; conditions: 240 h
Hepatitis B virus [15] = assay: Antiviral activity against Hepatitis B virus infected in human HepG2.2.15 cells assessed as inhibition of intracellular HBV DNA level at 1 uM measured on day 6 by FQ-PCR analysis; conditions: HepG2.2.15, 144 h
Duck hepatitis B virus [16] = assay: Antiviral activity against DHBV infected in duck assessed as inhibition of viral DNA level in liver at 0.04 mg/kg, po administered once daily measured on day 10 by SYBR Green I dye-based FQ-PCR analysis relative to control; conditions: 240 h
Duck hepatitis B virus [17] = assay: Antiviral activity against DHBV infected in duck assessed as inhibition of viral DNA level in serum at 1 mg/kg, po administered once daily measured on day 15 by SYBR Green I dye-based FQ-PCR analysis relative to control; conditions: 360 h
HepG2 2.2.15 = assay: Cytotoxicity against human HepG2.2.15 cells after 9 days by MTT assay; conditions: HepG2 2.2.15, 216 h
Hepatitis B virus [18] = assay: Antiviral activity against Hepatitis B virus harboring rtV173L/L180M/M204V mutant infected in HepGRL1 cells assessed as inhibition of intracellular HBV DNA level at 5 uM measured on day 6 by FQ-PCR analysis relative to control; conditions: 144 h
Hepatitis B virus [19] = assay: Antiviral activity against Hepatitis B virus harboring rtV173L/L180M/M204V mutant infected in HepGRL1 cells assessed as inhibition of intracellular HBV DNA level at 1 uM measured on day 9 by FQ-PCR analysis relative to control; conditions: 216 h
Hepatitis B virus [20] = assay: Antiviral activity against Hepatitis B virus infected in human HepG2.2.15 cells assessed as inhibition of intracellular HBV DNA level at 0.2 uM measured on day 9 by FQ-PCR analysis; conditions: HepG2.2.15, 216 h
Hepatitis B virus [21] = assay: Antiviral activity against Hepatitis B virus infected in human HepG2.2.15 cells assessed as inhibition of HBeAg secretion at 5 uM after 9 days by ELISA relative to control; conditions: HepG2.2.15, 216 h
Duck hepatitis B virus [22] = assay: Antiviral activity against DHBV infected in duck assessed as inhibition of viral DNA level in liver at 1 mg/kg, po administered once daily measured on day 15 by SYBR Green I dye-based FQ-PCR analysis relative to control; conditions: 360 h
Duck hepatitis B virus [23] = assay: Antiviral activity against DHBV infected in duck assessed as inhibition of viral DNA level in liver at 0.2 mg/kg, po administered once daily measured on day 15 by SYBR Green I dye-based FQ-PCR analysis relative to control; conditions: 360 h
Hepatitis B virus [24] = assay: Antiviral activity against Hepatitis B virus infected in human HepG2.2.15 cells assessed as inhibition of intracellular HBV DNA level at 0.2 uM measured on day 6 by FQ-PCR analysis; conditions: HepG2.2.15, 144 h
Hepatitis B virus [25] = assay: Antiviral activity against Hepatitis B virus infected in human HepG2.2.15 cells assessed as inhibition of intracellular HBV DNA level at 1 uM measured on day 9 by FQ-PCR analysis; conditions: HepG2.2.15, 216 h
Duck hepatitis B virus [26] = assay: Antiviral activity against DHBV infected in duck assessed as inhibition of viral DNA level in serum at 0.2 mg/kg, po administered once daily measured on day 10 by SYBR Green I dye-based FQ-PCR analysis relative to control; conditions: 240 h

## [N-]=[N+]=N[C@]1(CO)O[C@@H](n2cc(C(N)=O)nn2)[C@@H](F)[C@@H]1O
Hepatitis B virus [1]
  inhibition at 5 µM: 45.3%
Hepatitis B virus [2]
  inhibition at 0.2 µM: 15.8%
Hepatitis B virus [3]
  inhibition at 1 µM: 27.5%
Duck hepatitis B virus [4]
  inhibition in vivo at 1 mg/kg: 50%
Duck hepatitis B virus [5]
  inhibition in vivo at 0.04 mg/kg: 8.7%
Hepatitis B virus [6]
  inhibition at 5 µM: 42.6%
Duck hepatitis B virus [7]
  inhibition in vivo at 0.04 mg/kg: 12.2%
Duck hepatitis B virus [8]
  inhibition in vivo at 0.2 mg/kg: 39.3%
Hepatitis B virus [9]
  inhibition at 0.2 µM: 28.2%
Duck hepatitis B virus [10]
  inhibition in vivo at 1 mg/kg: 56.5%
Hepatitis B virus [11]
  inhibition at 5 µM: 57.1%
Hepatitis B virus [12]
  inhibition at 5 µM: 64.1%
Duck hepatitis B virus [13]
  inhibition in vivo at 0.04 mg/kg: 35.7%
Duck hepatitis B virus [14]
  inhibition in vivo at 0.2 mg/kg: 21.4%
Hepatitis B virus [15]
  inhibition at 1 µM: 39.3%
Duck hepatitis B virus [16]
  inhibition in vivo at 0.04 mg/kg: 7.1%
Duck hepatitis B virus [17]
  inhibition in vivo at 1 mg/kg: 67.9%
HepG2 2.2.15
  CC50: 526 µM
Hepatitis B virus [18]
  inhibition at 5 µM: 49.2%
Hepatitis B virus [19]
  inhibition at 1 µM: 52.4%
Hepatitis B virus [20]
  inhibition at 0.2 µM: 34.7%
Hepatitis B virus [21]
  inhibition at 5 µM: 21.9%
Duck hepatitis B virus [22]
  inhibition in vivo at 1 mg/kg: 53.7%
Duck hepatitis B virus [23]
  inhibition in vivo at 0.2 mg/kg: 24.4%
Hepatitis B virus [24]
  inhibition at 0.2 µM: 13.1%
Hepatitis B virus [25]
  inhibition at 1 µM: 51%
Duck hepatitis B virus [26]
  inhibition in vivo at 0.2 mg/kg: 26.1%

## CNC(=N)c1cn([C@@H]2O[C@@](CO)(N=[N+]=[N-])[C@@H](O)[C@@H]2F)nn1
Hepatitis B virus [1]
  inhibition at 5 µM: 22.2%
HepG2 2.2.15
  CC50: > 1000 µM
Hepatitis B virus [21]
  inhibition at 5 µM: 13.8%

## [N-]=[N+]=N[C@]1(CO)O[C@@H](n2cc(CO)nn2)[C@@H](F)[C@@H]1O
Hepatitis B virus [1]
  inhibition at 5 µM: 21.5%
HepG2 2.2.15
  CC50: > 1000 µM
Hepatitis B virus [21]
  inhibition at 5 µM: 10.8%

## COC(=N)c1cn([C@@H]2O[C@@](CO)(N=[N+]=[N-])[C@@H](O)[C@@H]2F)nn1
Hepatitis B virus [1]
  inhibition at 5 µM: 17.7%
HepG2 2.2.15
  CC50: 101 µM
Hepatitis B virus [21]
  inhibition at 5 µM: 11.4%
